Where a name gives a salt, the structure may show the parent alone. Read-outs that look alike come from different tables or passages of the source.
Key:
[1] = test system: 6 Hz psychomotor seizures; details: cited from earlier work
[2] = test system: 6 Hz psychomotor seizures; assay: 6 Hz psychomotor seizure test, mice; type: in vivo; details: IP; for 6 Hz (32 mA) ED50 / 6 Hz (14 mA) ED50: Table 14; for ED50: Mus musculus
Protocol: Evaluation of Compounds in 6 Hz Pyschomotor Seizure Test
Compounds were tested using a 6 Hz psychomotor seizure test. […] For example, both the MES and scM models are insensitive to levetiracetam, a compound considered potentially useful in the management of refractory seizures. […] Thus, the 6 Hz test can serve as a therapy resistant screening paradigm of acute seizure activity.

[3] = test system: Metrazol-induced clonic seizures; assay: scM (subcutaneous Metrazol) test, mice; type: in vivo; details: mice; for ED50: Mus musculus
Protocol: (§1) Evaluation of Compounds in scM Models of Seizures. Subcutaneous injection of the convulsant Metrazol produces clonic seizures in laboratory animals. […] Animals may be pretreated with various doses of the test compound given by ip injection. At a previously determined TPE (time to peak) of the test compound, the dose of Metrazol which will induce convulsions in 97% of animals (CD97:85 mg/kg mice) may be injected into a loose fold of skin in the midline of the neck. The animals may be placed in isolation cages to minimize stress and observed for the next 30 min for the presence or absence of a seizure. An episode of clonic spasms, approximately 3-5 seconds, of the fore and/or hindlimbs, jaws, or vibrissae may be taken as the endpoint. […] The scM test represents acute animal seizures.

[4] = molecular target: T1, rat NaV1.6 sodium channels (Rattus norvegicus, UniProt O88420); assay: Dose response on rat NaV1.6 channels in HEK293 cells; type: cell-based; details: rat Nav1.6 channel
T1 construct: expressed in transfected cells; host or cells: HEK293
From the text: Evaluation of Dose Response and Activation Response Compounds on Rat NaV1.6 Channels in Human Embryonic Kidney Cells (HEK293).

NaV1.6 sodium channels = NaV1.6 sodium channels (Homo sapiens, UniProt Q9UQD0); assay: State-dependent inhibition: steady state inactivation, use-dependent block; type: cell-based; details: for use-dependent block: 20 Hz
From the text: Evaluation of Compounds as State-Dependent Inhibitors
Use dependent block is an important characteristic for AED activity since it allows increased inhibition of sodium channels during increased neuronal activity as is observed during seizures.

NaV1.7 [5] = molecular target: T2, NaV1.7 (Homo sapiens, UniProt Q15858); assay: Qube assay, NaV1.7; type: cell-based; details: human isoform; read-out: Qube EP IC50 NaV1.7
Protocol: (§2) Evaluation of Compounds on Human Isoforms Using Qube Assay.
(§3) Compounds were tested using a Qube assay across NaV1.5, NaV1.6 and NaV1.7.

NaV1.7 [6] = molecular target: T2, NaV1.7; assay: High-throughput flux assay, NaV1.7; type: cell-based; details: human isoform;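 note: IC50 from the flux assay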
Protocol: (§4) Evaluation of Compounds on Human Isoforms Using a High-Throughput Flux Assay
(§5) Compounds were tested using a high-throughput flux assay across Nav1.5, Nav1.6 and Nav1.7.

Nav1.6 [7] = molecular target: T3, Nav1.6 (Homo sapiens, UniProt Q9UQD0); assay: Qube assay, NaV1.6; type: cell-based; details: human isoform; read-out: Qube EP IC50 NaV1.6
Protocol: as §2, §3

NaV1.5 [8] = molecular target: T4, NaV1.5 (Homo sapiens, UniProt Q14524); assay: Qube assay, NaV1.5; type: cell-based; details: human isoform; read-out: Qube EP IC50 NaV1.5
Protocol: as §2, §3

NaV1.5 [9] = molecular target: T4, NaV1.5; assay: High-throughput flux assay, NaV1.5; type: cell-based; details: human isoform;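 note: IC50 from the flux assay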
Protocol: as §4, §5

[10] = test system: knock-in mouse carrying the human N1768D gain of function NaV1.6 mutation (spontaneous seizures); assay: Seizure suppression in NaV1.6 mutation knock-in mouse model; type: in vivo; details: 100 mg/kg
Protocol: In Vivo Evaluation for Seizure Suppression in a Human Gain of Function NaV1.6 Mutation Knock-In Mouse Model.
Compounds were tested in vivo for seizure suppression in a knock-in mouse carrying the human N1768D gain of function NaV1.6 mutation. These knock-in mice experience spontaneous seizures. All test compounds were evaluated at 100 mg/kg.

Nav1.6 [11] = molecular target: T3, Nav1.6; assay: High-throughput flux assay, Nav1.6; type: cell-based; details: human isoform;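 note: IC50 from the flux assay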
Protocol: as §4, §5

Nav1.6 [12] = molecular target: T3, Nav1.6; assay: % block of Nav1.6 at 100 μM and IC50 (NaV1.6); type: cell-based; details: for inhibition at 100 µM: 100 μM compound
Protocol: Evaluation of Compounds for % Block of Nav1.6 at 100 μM
Compounds of the present invention were tested in an assay for % block of Nav1.6 at a concentration of 100 μM compound. Table 1 also indicates the melting point ranges for some compounds.
Some such compounds correspond to a compound of Formula III, wherein R9 is substituted with a halogen, a nitro or a CF3 group. In comparing MV1089, MV1090 and MV1091, it is shown that compounds of Formula III where R3 is H result in higher % block than when R3 is substituted. e.g., by OCH3. In comparing MV1066, MV1084, MV1085, MV1086, MV1087 and MV1088, it is shown that compounds of Formula III where R9 is halogen, a nitro or a CF3 group result in higher % block than when R9 is OCH3, COOH or CH3.

[13] = test system: maximal electroshock (MES) seizures; assay: MES (maximal electroshock) test, mice; type: in vivo; details: mice; for ED50: Mus musculus
From the text: Evaluation of Compounds in MES Models of Seizures. […] These seizures are highly reproducible and are electrophysiologically consistent with human seizures. […] Abolition of the hindleg tonic extensor component of the seizure was used as the endpoint.

[14] = test system: corneal kindled mice seizures; assay: Corneal kindled mice model; type: in vivo; details: for Avg. Score / N/F (animals active over number tested): TPE 0.5 hours
Protocol: Evaluation of Compounds in Corneal Kindled Mice Model.
Corneal kindled mice are kindled electrically via 3 second stimulation at 8 mA, 60 Hz through corneal electrodes to produce 10 consecutive stage […] seizures according to the Racine scale. Animals are defined as kindled once they progress to a reproducible stage 5 seizure. 72 hours after the mice have been kindled the test substance is administered and, according to a previously determined TPE (time to peak), the animals are electrically stimulated. The animals are considered protected when displaying a stage 3, or lower, seizure.

[15] = test system: Metrazol-induced clonic seizures; assay: scM (subcutaneous Metrazol) test, rats; type: in vivo; details: Rattus norvegicus, rats
Protocol: as §1

[16] = test system: maximal electroshock (MES) seizures; assay: MES (maximal electroshock) test, rats; type: in vivo; details: Rattus norvegicus, rats
From the text: Evaluation of Compounds in MES Models of Seizures. The MES is a model for generalized tonic-clonic seizures and provides an indication of a compound's ability to prevent seizure spread when all neuronal circuits in the brain are maximally active. These seizures are highly reproducible and are electrophysiologically consistent with human seizures. […] Abolition of the hindleg tonic extensor component of the seizure was used as the endpoint.

in vivo = details: mouse
[17] = Behavioral toxicity (TOX, TD50), rats; type: in vivo; details: rat, in vivo
[18] = IP, Table 14, read-out: MES ED50
[19] = 32 mA, Table 14, read-out: 6 Hz (32 mA) ED50
[20] = (14 mA) [sic], Table 14, read-out: 6 Hz (14 mA) ED50
[21] = IP, Table 14, read-out: sCM ED50

T2 sequence (Q15858 whole entry, canonical isoform): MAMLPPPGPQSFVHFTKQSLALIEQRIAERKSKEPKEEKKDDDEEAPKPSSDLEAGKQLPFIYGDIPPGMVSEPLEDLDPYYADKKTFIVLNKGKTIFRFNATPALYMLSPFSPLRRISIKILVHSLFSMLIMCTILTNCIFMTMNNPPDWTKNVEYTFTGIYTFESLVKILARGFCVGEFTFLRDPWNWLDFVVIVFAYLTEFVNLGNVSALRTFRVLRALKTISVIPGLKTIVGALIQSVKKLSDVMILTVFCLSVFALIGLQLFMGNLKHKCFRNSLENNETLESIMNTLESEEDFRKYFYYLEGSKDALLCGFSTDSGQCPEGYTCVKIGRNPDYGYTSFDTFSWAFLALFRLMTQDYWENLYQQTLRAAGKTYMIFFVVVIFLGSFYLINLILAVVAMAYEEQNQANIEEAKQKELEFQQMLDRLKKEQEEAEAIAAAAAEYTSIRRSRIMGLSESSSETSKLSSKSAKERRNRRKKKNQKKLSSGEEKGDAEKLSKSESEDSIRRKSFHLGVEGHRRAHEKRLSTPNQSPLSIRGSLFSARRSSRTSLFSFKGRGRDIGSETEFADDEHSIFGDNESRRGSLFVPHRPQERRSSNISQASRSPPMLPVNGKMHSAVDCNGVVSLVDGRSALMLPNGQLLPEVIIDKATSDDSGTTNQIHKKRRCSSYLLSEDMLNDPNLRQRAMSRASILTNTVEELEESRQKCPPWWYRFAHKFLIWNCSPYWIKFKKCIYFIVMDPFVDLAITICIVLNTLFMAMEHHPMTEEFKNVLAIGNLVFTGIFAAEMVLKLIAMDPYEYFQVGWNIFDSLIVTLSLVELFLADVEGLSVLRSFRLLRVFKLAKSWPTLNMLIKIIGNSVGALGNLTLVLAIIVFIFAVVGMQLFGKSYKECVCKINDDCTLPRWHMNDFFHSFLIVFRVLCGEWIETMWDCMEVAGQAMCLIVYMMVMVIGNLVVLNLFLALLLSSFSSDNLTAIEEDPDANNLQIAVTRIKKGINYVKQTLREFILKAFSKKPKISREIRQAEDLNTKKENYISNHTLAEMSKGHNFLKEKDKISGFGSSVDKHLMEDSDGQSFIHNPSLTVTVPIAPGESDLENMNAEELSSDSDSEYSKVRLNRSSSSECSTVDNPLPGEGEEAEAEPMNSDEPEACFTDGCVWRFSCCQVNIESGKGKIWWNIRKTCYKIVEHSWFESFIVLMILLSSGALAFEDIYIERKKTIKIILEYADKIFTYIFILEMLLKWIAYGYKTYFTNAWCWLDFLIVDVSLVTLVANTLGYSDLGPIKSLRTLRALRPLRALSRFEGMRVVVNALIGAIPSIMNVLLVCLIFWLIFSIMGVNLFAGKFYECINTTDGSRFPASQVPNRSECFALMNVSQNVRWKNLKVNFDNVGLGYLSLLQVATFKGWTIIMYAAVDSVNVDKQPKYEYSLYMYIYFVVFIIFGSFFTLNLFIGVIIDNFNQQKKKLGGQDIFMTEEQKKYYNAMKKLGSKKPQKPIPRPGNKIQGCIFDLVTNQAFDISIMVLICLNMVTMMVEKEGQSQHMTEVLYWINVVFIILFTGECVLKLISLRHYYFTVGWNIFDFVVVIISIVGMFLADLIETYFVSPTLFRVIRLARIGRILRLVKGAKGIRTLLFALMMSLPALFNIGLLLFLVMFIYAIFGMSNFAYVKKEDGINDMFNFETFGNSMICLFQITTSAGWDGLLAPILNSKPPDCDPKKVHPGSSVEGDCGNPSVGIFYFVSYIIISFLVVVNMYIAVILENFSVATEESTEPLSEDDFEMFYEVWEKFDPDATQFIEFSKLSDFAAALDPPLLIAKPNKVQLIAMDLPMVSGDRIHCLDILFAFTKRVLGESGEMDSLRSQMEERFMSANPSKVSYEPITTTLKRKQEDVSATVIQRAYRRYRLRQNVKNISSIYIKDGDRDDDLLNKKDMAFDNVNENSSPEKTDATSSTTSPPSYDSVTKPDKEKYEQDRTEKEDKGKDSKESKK
T1 sequence (O88420 whole entry): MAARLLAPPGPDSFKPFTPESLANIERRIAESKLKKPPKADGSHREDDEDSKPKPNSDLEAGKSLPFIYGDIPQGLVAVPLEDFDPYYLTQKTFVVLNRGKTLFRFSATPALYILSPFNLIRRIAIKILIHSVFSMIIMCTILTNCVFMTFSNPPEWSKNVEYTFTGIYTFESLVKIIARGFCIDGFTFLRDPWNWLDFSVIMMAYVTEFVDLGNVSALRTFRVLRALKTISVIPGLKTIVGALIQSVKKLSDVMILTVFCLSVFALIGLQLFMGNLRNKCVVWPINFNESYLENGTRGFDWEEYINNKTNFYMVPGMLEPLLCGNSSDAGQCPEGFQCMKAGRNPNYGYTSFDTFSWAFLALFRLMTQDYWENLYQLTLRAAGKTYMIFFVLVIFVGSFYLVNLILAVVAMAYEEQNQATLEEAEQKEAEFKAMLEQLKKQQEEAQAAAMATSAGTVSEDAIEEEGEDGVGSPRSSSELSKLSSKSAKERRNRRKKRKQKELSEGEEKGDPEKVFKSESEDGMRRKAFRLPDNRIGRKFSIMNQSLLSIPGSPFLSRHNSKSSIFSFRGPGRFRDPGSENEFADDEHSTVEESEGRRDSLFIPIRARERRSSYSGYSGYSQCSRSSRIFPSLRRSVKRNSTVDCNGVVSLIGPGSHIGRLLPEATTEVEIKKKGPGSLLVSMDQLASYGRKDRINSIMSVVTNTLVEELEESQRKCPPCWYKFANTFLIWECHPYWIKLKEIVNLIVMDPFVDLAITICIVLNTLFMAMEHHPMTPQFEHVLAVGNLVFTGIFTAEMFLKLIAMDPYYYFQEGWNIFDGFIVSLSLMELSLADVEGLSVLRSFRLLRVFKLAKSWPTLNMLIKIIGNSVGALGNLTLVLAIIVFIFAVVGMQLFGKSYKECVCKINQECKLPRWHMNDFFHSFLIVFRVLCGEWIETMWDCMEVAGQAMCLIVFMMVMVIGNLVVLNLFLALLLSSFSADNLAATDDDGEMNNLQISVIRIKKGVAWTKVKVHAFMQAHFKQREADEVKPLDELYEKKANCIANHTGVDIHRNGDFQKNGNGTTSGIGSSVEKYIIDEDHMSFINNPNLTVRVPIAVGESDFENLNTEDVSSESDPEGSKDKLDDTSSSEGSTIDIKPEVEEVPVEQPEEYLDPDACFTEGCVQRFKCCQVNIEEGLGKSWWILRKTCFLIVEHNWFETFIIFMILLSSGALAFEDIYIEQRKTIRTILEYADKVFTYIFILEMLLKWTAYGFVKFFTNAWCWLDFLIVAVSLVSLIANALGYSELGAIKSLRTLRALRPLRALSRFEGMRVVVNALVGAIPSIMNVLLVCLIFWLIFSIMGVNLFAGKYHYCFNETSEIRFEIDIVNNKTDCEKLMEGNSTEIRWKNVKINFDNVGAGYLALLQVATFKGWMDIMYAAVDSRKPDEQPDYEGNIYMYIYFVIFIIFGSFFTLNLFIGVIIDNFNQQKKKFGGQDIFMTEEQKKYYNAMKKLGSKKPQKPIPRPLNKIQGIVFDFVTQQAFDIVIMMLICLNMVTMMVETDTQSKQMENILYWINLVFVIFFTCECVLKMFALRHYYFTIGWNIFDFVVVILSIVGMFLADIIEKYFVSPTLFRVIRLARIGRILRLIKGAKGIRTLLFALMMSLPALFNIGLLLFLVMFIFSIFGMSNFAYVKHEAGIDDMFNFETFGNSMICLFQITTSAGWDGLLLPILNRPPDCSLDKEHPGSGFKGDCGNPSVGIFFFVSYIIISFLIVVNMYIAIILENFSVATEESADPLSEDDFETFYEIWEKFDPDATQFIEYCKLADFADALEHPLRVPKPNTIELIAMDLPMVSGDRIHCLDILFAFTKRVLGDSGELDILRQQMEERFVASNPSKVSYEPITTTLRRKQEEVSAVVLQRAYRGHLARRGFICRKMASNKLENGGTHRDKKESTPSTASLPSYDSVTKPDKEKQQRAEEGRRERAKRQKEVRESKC

SMILES | 6 Hz (32 mA) ED50 ([2]; 32 mA) | 6 Hz (14 mA) ED50 ([2]; (14 mA) [sic]) | sCM ED50 ([3]; IP, Table 14) | IC50 [4] [µM] | IC50 (NaV1.7 [5]) [µM] | IC50 (NaV1.7 [6]) [µM] | IC50 (Nav1.6 [7]) [µM] | IC50 (NaV1.5 [8]) [µM] | IC50 (NaV1.5 [9]) [µM] | seizure suppression [10] | IC50 (Nav1.6 [11]) [µM] | inhibition at 100 µM (Nav1.6 [12]) [%] | ED50 [13, 18] [mg/kg] | activity in 6 Hz test ([1]; 44 mA) | ED50 [2, 19] [mg/kg] | ED50 [3, 21] [mg/kg] | other results
O=C1NC(=O)C(c2ccccc2)(c2ccccc2)N1 [Phenytoin, reference compound] | None | None | None |  |  |  |  |  |  |  |  |  |  |  |  |  | activity in 6 Hz test ([1]; 32 mA): lose activity
Cc1nc(-c2cccc(C(F)(F)F)c2)[nH]c1-c1ccccc1 [MV1504, 4-methyl-5-phenyl-2-[3-(trifluoromethyl)phenyl]-1H-imidazole hydrochloride] |  |  |  | 12 | 7.95 | 5.72 | 3.32 | 13.3 | 4.32 | suppressed seizures | 2.07 | 100 |  |  |  |  | shift of half maximal voltage for inactivation (V1/2) compared to control (NaV1.6 sodium channels; 10 μM): −10.9 mV; use-dependent block (NaV1.6 sodium channels): profound use-dependent block
NC(=O)N1c2ccccc2C=Cc2ccccc21 [Carbamazepine, reference compound] | None | None | None |  |  |  |  |  |  |  |  |  | 7.8 |  |  |  | TOX (TD50) (mice; mice, IP, Table 14): 45.5 mg/kg
Nc1nnc(-c2cccc(Cl)c2Cl)c(N)n1 [Lamotrigine, reference compound] | None | None | None |  |  |  |  |  |  |  |  |  | 7.5 |  |  |  | activity in 6 Hz test ([1]; 32 mA): lose activity
CCCC(CCC)C(=O)O [Valproic Acid, reference compound] |  |  |  |  |  |  |  |  |  |  |  |  | 263 | need higher doses | 126 | 220 | ED50 [2, 20]: 310 mg/kg
Cc1nc(-c2ccc(Cl)cc2)[nH]c1-c1ccccc1 [MV1502, 2-(4-chlorophenyl)-4-methyl-5-phenyl-1H-imidazole hydrochloride] |  |  |  | 1.2 | 3.88 | 4.76 | 0.749 | 12.7 | 4.89 | suppressed seizures | 1.61 | 95 |  |  |  |  | shift of half maximal voltage for inactivation (V1/2) compared to control (NaV1.6 sodium channels; 1 μM): −9.3 mV
Cc1nc(-c2cccc(Cl)c2)[nH]c1-c1ccccc1 [MV1505, 2-(3-chlorophenyl)-4-methyl-5-phenyl-1H-imidazole] |  |  |  | 5.4 | 8.04 | 5.22 | 2.72 | 10 | 3.64 | suppressed seizures | 1.59 | 100 |  |  |  |  | shift of half maximal voltage for inactivation (V1/2) compared to control (NaV1.6 sodium channels; 10 μM): −12.7 mV; use-dependent block (NaV1.6 sodium channels): profound use-dependent block
COc1ccc(-c2nc3ccccc3[nH]2)cc1 [MV1062, 2-(4-methoxyphenyl)-1H-1,3-benzodiazole] |  |  |  |  |  |  |  |  |  |  |  | 70 | 30.8 |  | 69.6 | 206 | Avg. Score ([14]; 20 mg/kg): 5.0; N/F (animals active over number tested) ([14]; 20 mg/kg): 0/8; Avg. Score ([14]; 55 mg/kg): 4.0; N/F (animals active over number tested) ([14]; 55 mg/kg): 3/8; Avg. Score ([14]; 100 mg/kg): 1.375; N/F (animals active over number tested) ([14]; 100 mg/kg): 7/8; ED50 ([14]; Mus musculus): 63.6 mg/kg; ED50 ([13]; read-out: ED50 (MES test)): 30.8 mg/kg; ED50 [2, 20]: 80.5 mg/kg; ED50 ([3]; sc, read-out: ED50 (scM test)): 206 mg/kg; ED50 ([15]; sc, read-out: ED50 (scM test)): 123 mg/kg; ED50 ([15]; IP, Table 15, read-out: sCM ED50): 122 mg/kg; ED50 ([16]; IP, Table 15, read-out: MES ED50): 10.8 mg/kg; ED50 ([16]; read-out: ED50 (MES test)): 10.8 mg/kg; IC50 (Nav1.6 [12]; NaV1.6, Table 2, MV1060-MV1091, unit inferred, read-out: IC50): 90.2 µM; TD50 (in vivo): 601 mg/kg; TD50 (in vivo; ip): 601 mg/kg; TD50 ([17]; IP, Table 15, read-out: TOX TD50): > 500 mg/kg; TD50 ([17]; read-out: TD50 (behavioral toxic dose)): > 500 mg/kg
CC[C@@H](C(N)=O)N1CCCC1=O [levetiracetam] |  |  |  |  |  |  |  |  |  |  |  |  |  | need higher doses |  |  | 
CCC1(C)CC(=O)NC1=O (stereo not drawn) [Ethosuximide, reference compound] |  | None |  |  |  |  |  |  |  |  |  |  |  | ineffective | 167 | 136 | MES ED50 ([13]; IP, Table 14): None; TOX (TD50) (mice; mouse, in vivo, ip): 341 mg/kg

Source: patent US12403128B2, “Compositions and methods for blocking sodium channels” (University of Virginia Patent Foundation, priority 2017, dated 2025)
